The values below come from patent US20230295181A1, “INHIBITOR OF APOPTOSIS (IAP) PROTEIN ANTAGONISTS” (Sanford Burnham Prebys Medical Discovery Institute, priority 2020, published 2023).

Format in all cases: cell-based
The subject of data set [1] is SKOV-3. Put plainly: Cell viability (CellTiterGlo), SKOV-3. The conditions noted are these: Homo sapiens, SK-OV-3. The method, then:
(§1) Candidate compounds are tested in 384-well plates for effects on cell viability in the presence or absence of an appropriate conventional anticancer drug. Cell viability is indirectly monitored in the first instance using CellTiterGlo (Promega Corp., Madison, WI) (Table D). To determine if cell death is apoptotic, the induction of caspase activity is assessed utilizing the CaspaseGlo Assay system (Promega Corp., Madison, WI) (Table E). Cell viability is monitored 1 to 3 days after addition of compounds and conventional drugs. […] A compound of any of the formulae as disclosed herein is evaluated in combination with said anticancer drug to determine which ML-IAP antagonist can sensitize most efficaciously. Select candidate compounds are tested in 14 point drug dose response (DDR) curves in a 384-well format in order to establish potency in combination with decreasing concentrations of lung cancer relevant drug regimens. Furthermore, checker-board titrations of a conventional drug and the candidate molecules are performed to search for synergy (using ISOBOLOGRAM analysis). Compounds and combinations as described herein are also tested for cytotoxicity against normal human cells (e.g. primary fibroblasts, lymphocytes, hepatocytes, epithelial and endothelial cells) using known methods.
(§2) Cell viability was evaluated following treatment with a compound as disclosed in Table D. Viability of cancer cells following treatment is indicated according to the following legend: […]
On the technique in general: In ATP-based viability assays light output follows the ATP content of the culture.

The test system of data set [2] is OVCAR-4. Put plainly: Cell viability (CellTiterGlo), OVCAR-4. As to conditions: Homo sapiens. The protocol: as §1, §2
In data set [3] the test system is SKOV-3 cancer cell lines. The data set is described as follows: SKOV-3 cell viability after treatment with 10 μM test compound. As to conditions: for % viability after treatment with 10 micromolar of test compound (SKOV-3 cells): 10 micromolar test compound, hydrochloride; for viability at 10 µM: Homo sapiens, SK-OV-3, 10 micromolar test compound, SKOV-3 cells. The method, then:
SKOV-3 cancer cell lines were treated with a test compound, either as a pure enantiomer or a mixture of stereoisomers, at a concentration of 10 μM. Cell viability was evaluated following treatment with a compound as disclosed in Table B. Viability of cancer cells following treatment is indicated according to the following legend:
A=0-25% viability B=26-50% viability C=>50% viability

Where a name gives a salt, the structure may show the parent alone.

In general, IC50 refers to the concentration that inhibits the measured activity by half. For the compound `C=CCC1(CC=C)C[C@@H]2SCC[C@H](NC(=O)[C@H](C)NC)C(=O)N2[C@@H]1C(=O)N[C@@H]1CCCc2ccccc21` [Compound 29, (4S,9aS)-8,8-diallyl-4-((S)-2-(methylamino)propanamido)-5-oxo-N—((R)-1,2,3,4-tetrahydronaphthalen-1-yl)octahydropyrrolo[2,1-b][1,3]thiazepine-7-carboxamide hydrochloride], the IC50 in data set [1] and in data set [2] was above 1000 nM in each case. For the same compound, the “% viability after treatment with 10 micromolar of test compound (SKOV-3 cells)” value (shortened to “% viability after treatment”) in data set [3] is “A (A=0-25% viability)”.
The term viability denotes a read-out of living cells in per cent, often relative to untreated cells. Low readings indicate more harm to the cells, high ones less harm to the cells. On to `CN[C@@H](C)C(=O)N[C@H]1Cc2c([nH]c3ccccc23)[C@H]2CC(C)(C)C(C(=O)N[C@@H]3CCCc4ccccc43)N2C1=O` (stereo in doubt) [Compound 2, (3R, 6S,12bR)-2,2-dimethyl-6-((S)-2-(methylamino)propanamido)-5-oxo-N—((R)-1,2,3,4-tetrahydronaphthalen-1-yl)-1,2,3,5,6,7,12,12b-octahydropyrrolo[1′,2′:1,2]azepino[3,4-b]indole-3-carboxamide hydrochloride], for which the IC50 in data set [1] and in data set [2] was above 1000 nM in each case. This compound also registered a viability at 10 µM in data set [3] of 26 to 50%.
As for `CN[C@@H](C)C(=O)N[C@H]1CCO[C@H]2CC(C)(C)[C@@H](C(=O)N[C@@H]3CCOc4ccccc43)N2C1=O` [Compound 74, (4S,7S,9aS)—N—((R)-chroman-4-yl)-8,8-dimethyl-4-((S)-2-(methylamino)propanamido)-5-oxooctahydropyrrolo[2,1-b][1,3]oxazepine-7-carboxamide hydrochloride], the IC50 lay in the range of 10 to 100 nM in data set [1] and 100 to 1000 nM in data set [2]. The viability at 10 µM in data set [3] fell in the range of 0 to 25%.
For `CCC1(CC)C[C@@H]2OCC[C@H](NC(=O)[C@H](C)NC)C(=O)N2[C@@H]1C(=O)N[C@@H]1CCCc2ccccc21` [Compound 21, (4S)-8,8-diethyl-4-((S)-2-(methylamino)propanamido)-5-oxo-N—((R)-1,2,3,4-tetrahydronaphthalen-1-yl)octahydropyrrolo[2,1-b][1,3]oxazepine-7-carboxamide hydrochloride] the same measures were 10 to 100 nM, 100 to 1000 nM and 0 to 25%.
Consider `C=CCC1(CC=C)C[C@@H]2OCC[C@H](NC(=O)[C@H](C)NC)C(=O)N2[C@@H]1C(=O)N[C@@H]1CCCc2ccccc21` [Compound 14, (4S,9aS)-8,8-diallyl-4-((S)-2-(methylamino)propanamido)-5-oxo-N—((R)-1,2,3,4-tetrahydronaphthalen-1-yl)octahydropyrrolo[2,1-b][1,3]oxazepine-7-carboxamide hydrochloride], for which the IC50 in data set [1] and in data set [2] was 100 to 1000 nM in each case. In data set [3], this compound showed a viability at 10 µM of 0 to 25%.
As to `CN[C@@H](C)C(=O)N[C@H]1Cc2cc(OC)ccc2[C@H]2CC(C)(C)[C@@H](C(=O)N[C@@H]3CCCc4ccccc43)N2C1=O` [Compound 9, (6S,11bR)-9-methoxy-2,2-dimethyl-6-((S)-2-(methylamino)propanamido)-5-oxo-N—((R)-1,2,3,4-tetrahydronaphthalen-1-yl)-2,3,5,6,7,11b-hexahydro-1H-benzo[c]pyrrolo[1,2-a]azepine-3-carboxamide hydrochloride], the IC50 in data set [1] and in data set [2] was 100 to 1000 nM in each case. Further, the viability at 10 µM in data set [3] was 0 to 25%.
For `C=CCC1C[C@@H]2OCC[C@H](NC(=O)[C@H](C)NC)C(=O)N2[C@@H]1C(=O)N[C@@H]1CCCc2ccccc21` (stereo partly drawn) [Compound 15, (4S,9aS)-8,8-allyl-4-((S)-2-(methylamino)propanamido)-5-oxo-N—((R)-1,2,3,4-tetrahydronaphthalen-1-yl)octahydropyrrolo[2,1-b][1,3]oxazepine-7-carboxamide hydrochloride], the IC50 was 10 to 100 nM in data set [1] and above 1000 nM in data set [2]. In addition, the viability at 10 µM in data set [3] was in the range of 26 to 50%.
Take `CN[C@@H](C)C(=O)N[C@H]1CCS[C@H]2CC(CCc3ccccc3)[C@@H](C(=O)N[C@@H]3CCCc4ccccc43)N2C1=O` (stereo partly drawn) [Compound 44, (4S,9aS)-4-((S)-2-(methylamino)propanamido)-5-oxo-8,8-phenethyl-N—((R)-1,2,3,4-tetrahydronaphthalen-1-yl)octahydropyrrolo[2,1-b][1,3]thiazepine-7-carboxamide hydrochloride]: the IC50 in data set [1] and in data set [2] was above 1000 nM throughout. Besides, in data set [3], the “% viability after treatment” value is given as “A (A=0-25% viability)”.
`CN[C@@H](C)C(=O)N[C@H]1CCO[C@H]2CC(C)(C)[C@@H](C(=O)N[C@@H]3CCSc4ccccc43)N2C1=O` [Compound 69, (4S,7S,9aS)-8,8-dimethyl-4-((S)-2-(methylamino)propanamido)-5-oxo-N—((R)-thiochroman-4-yl)octahydropyrrolo[2,1-b][1,3]oxazepine-7-carboxamide hydrochloride]: the figures for the IC50 in data set [1] and in data set [2] were 10 to 100 nM and 100 to 1000 nM, respectively. In data set [3], the viability at 10 µM was 0 to 25%.
In the case of `CN[C@@H](C)C(=O)N[C@H]1CCO[C@H]2CC(C)(C)[C@@H](C(=O)NCCC(C)C)N2C1=O` [Compound 70, (4S,7S,9aS)—N-isopentyl-8,8-dimethyl-4-((S)-2-(methylamino)propanamido)-5-oxooctahydropyrrolo[2,1-b][1,3]oxazepine-7-carboxamide hydrochloride], the IC50 in data set [1] and in data set [2] was above 1000 nM each time. The compound further yielded a viability at 10 µM in data set [3] above 50%.
Take `CN[C@@H](C)C(=O)N[C@H]1CCO[C@H]2CC(C)(C)[C@@H](CN[C@@H]3CCCc4ccccc43)N2C1=O` [Compound 56, (S)—N-((4S,7S,9aS)-8,8-dimethyl-5-oxo-7-((((R)-1,2,3,4-tetrahydronaphthalen-1-yl)amino)methyl)octahydropyrrolo[2,1-b][1,3]oxazepin-4-yl)-2-(methylamino)propanamide dihydrochloride]: the IC50 in data set [1] and in data set [2] was above 1000 nM in each case. In data set [3], this compound had a viability at 10 µM above 50%.
Consider `CN[C@@H](C)C(=O)N[C@H]1CCS(=O)(=O)[C@H]2CC(C)(C)[C@@H](C(=O)N[C@@H]3CCCc4ccccc43)N2C1=O` [Compound 1, (4S,7S,9aS)-8,8-dimethyl-4-((S)-2-(methylamino)propanamido)-5-oxo-N—((R)-1,2,3,4-tetrahydronaphthalen-1-yl)octahydropyrrolo[2,1-b][1,3]thiazepine-7-carboxamide 1,1-dioxide hydrochloride], for which the IC50 in data set [1] and in data set [2] was above 1000 nM throughout. The same compound had a viability at 10 µM in data set [3] above 50%.
Turning to `CN[C@@H](C)C(=O)N[C@H]1CCO[C@H]2CC(CCc3ccccc3)(CCc3ccccc3)[C@H](C(=O)N[C@@H]3CCCc4ccccc43)N2C1=O` [Compound 22, (4S,9aS)-4-((S)-2-(methylamino)propanamido)-5-oxo-8,8-diphenethyl-N—((R)-1,2,3,4-tetrahydronaphthalen-1-yl)octahydropyrrolo[2,1-b][1,3]oxazepine-7-carboxamide hydrochloride], in data set [3], the viability at 10 µM is 0 to 25%.
Same read-out and setting: in the case of `C#CCO[C@@H]1Cc2ccccc2[C@@H]1NC(=O)[C@H]1N2C(=O)[C@@H](NC(=O)[C@H](C)NC)CCS[C@H]2CC1(C)C` [Compound 83, (2S)-1-{[(4S,7S,9aS)-8,8-Dimethyl-5-oxo-7-{[(1S,2R)-2-(prop-2-yn-1-yloxy)-2,3-dihydro-1H-inden-1-yl]carbamoyl}octahydropyrrolo[2,1-b][1,3]thiazepin-4-yl]amino}-N-methyl-1-oxopropan-2-ammonium chloride] it was 0 to 25%; in that of `CN[C@@H](C)C(=O)N[C@H]1CCS[C@H]2CC(C)(C)[C@@H](C(=O)N[C@H]3c4ccccc4C[C@H]3OCCF)N2C1=O` [Compound 78, (4S,7S,9aS)—N-((1S,2R)-2-(2-fluoroethoxy)-2,3-dihydro-1H-inden-1-yl)-8,8-dimethyl-4-((S)-2-(methylamino)propanamido)-5-oxooctahydropyrrolo[2,1-b][1,3]thiazepine-7-carboxamide hydrochloride], 0 to 25%.
Turning to `CCC1(CC)C[C@@H]2SCC[C@H](NC(=O)[C@H](C)NC)C(=O)N2[C@@H]1C(=O)N[C@@H]1CCCc2ccccc21` [Compound 35, (4S,9aS)-8,8-diethyl-4-((S)-2-(methylamino)propanamido)-5-oxo-N—((R)-1,2,3,4-tetrahydronaphthalen-1-yl)octahydropyrrolo[2,1-b][1,3]thiazepine-7-carboxamide hydrochloride], the “% viability after treatment” value in data set [3] is “A (A=0-25% viability)”.
On the same count and under the same terms, in the case of `CN[C@@H](C)C(=O)N[C@H]1CCS[C@H]2CC(C(C)C)(C(C)C)[C@@H](C(=O)N[C@@H]3CCCc4ccccc43)N2C1=O` [Compound 40, 4S,9aS)-8,8-diisopropyl-4-((S)-2-(methylamino)propanamido)-5-oxo-N—((R)-1,2,3,4-tetrahydronaphthalen-1-yl)octahydropyrrolo[2,1-b][1,3]thiazepine-7-carboxamide hydrochloride] it was “C (C=>50% viability)”.
